Data taken from paper PMC3929239 (Bioorganic & medicinal chemistry letters, 2011).

What was measured:
mTOR = mTOR (Homo sapiens, UniProt P42345); assay: Ambit KINOMEscan; type: binding
P110α/P85α = P110α/P85α (Homo sapiens, UniProt P42336); assay: Ambit KINOMEscan; type: binding
P110δ/P85α = target: T1, P110δ/P85α (Homo sapiens, UniProt O00329); assay: Ambit KINOMEscan; type: binding
T1 sequence (O00329 1-1044): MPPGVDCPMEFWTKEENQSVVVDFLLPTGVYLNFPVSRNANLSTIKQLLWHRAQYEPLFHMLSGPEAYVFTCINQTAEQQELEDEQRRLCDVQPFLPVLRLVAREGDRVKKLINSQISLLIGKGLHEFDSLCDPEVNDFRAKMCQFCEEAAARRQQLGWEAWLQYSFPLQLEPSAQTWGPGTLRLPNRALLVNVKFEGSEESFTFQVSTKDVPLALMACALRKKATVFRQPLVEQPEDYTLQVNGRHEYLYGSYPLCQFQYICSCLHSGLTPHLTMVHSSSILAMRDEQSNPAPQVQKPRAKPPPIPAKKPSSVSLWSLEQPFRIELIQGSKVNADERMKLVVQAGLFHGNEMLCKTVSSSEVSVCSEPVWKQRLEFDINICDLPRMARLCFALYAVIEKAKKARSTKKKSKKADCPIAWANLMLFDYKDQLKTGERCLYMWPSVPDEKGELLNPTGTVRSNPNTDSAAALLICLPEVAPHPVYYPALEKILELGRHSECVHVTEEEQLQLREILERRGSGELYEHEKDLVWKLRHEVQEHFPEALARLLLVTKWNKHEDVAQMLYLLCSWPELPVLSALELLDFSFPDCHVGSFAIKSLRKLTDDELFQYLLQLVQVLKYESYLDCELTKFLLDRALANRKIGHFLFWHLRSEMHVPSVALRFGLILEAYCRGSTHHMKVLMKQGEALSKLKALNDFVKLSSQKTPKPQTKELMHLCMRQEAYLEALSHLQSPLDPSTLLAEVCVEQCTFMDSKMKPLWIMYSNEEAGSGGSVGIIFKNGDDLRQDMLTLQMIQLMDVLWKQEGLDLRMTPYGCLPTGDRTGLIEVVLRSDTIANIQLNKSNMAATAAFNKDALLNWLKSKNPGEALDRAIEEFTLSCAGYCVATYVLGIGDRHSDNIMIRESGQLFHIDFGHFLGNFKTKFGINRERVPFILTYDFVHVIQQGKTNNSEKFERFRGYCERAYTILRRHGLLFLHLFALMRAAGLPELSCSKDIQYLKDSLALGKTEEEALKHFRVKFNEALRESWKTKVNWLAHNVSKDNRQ

P110γ = P110γ (Homo sapiens, UniProt P48736); assay: Ambit KINOMEscan; type: binding
CYP2D6 = CYP2D6 (Homo sapiens, UniProt P10635); assay: Single point CYP450 inhibition test; type: in vitro ADME; settings: for inhibition at 10 µM: human, CYP2D6 % inhibition
[1] = test system: downstream targets of mTOR, S6K, and Akt; assay: In vivo pharmacodynamic study; settings: liver and lung tissues, after 6h, 20 mg/kg
CYP3A4 = CYP3A4 (Homo sapiens, UniProt P08684); assay: Single point CYP450 inhibition test; type: in vitro ADME
PI3K-C2β = PI3K-C2β (Homo sapiens, UniProt O00750); assay: Ambit KINOMEscan; type: binding
U87-MG mouse xenograft = settings: cited from earlier work
450 kinases = 450 kinases profiled by KINOMEscan; cited from earlier work

Sequence of CYP2D6 (P10635 whole entry): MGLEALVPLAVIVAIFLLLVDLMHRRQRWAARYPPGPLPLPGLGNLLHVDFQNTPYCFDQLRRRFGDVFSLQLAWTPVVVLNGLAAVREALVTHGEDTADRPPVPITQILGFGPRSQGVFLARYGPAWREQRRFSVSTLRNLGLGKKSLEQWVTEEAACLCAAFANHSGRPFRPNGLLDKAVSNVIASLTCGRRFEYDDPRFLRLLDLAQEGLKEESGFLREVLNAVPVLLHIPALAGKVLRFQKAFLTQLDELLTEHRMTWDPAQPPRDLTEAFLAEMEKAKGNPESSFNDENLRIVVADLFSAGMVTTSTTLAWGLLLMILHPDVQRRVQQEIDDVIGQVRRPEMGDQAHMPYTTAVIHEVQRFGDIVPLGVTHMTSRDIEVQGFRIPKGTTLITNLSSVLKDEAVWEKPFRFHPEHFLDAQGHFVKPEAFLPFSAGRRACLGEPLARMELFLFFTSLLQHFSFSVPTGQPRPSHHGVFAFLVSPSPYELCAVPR
Sequence of P110γ (P48736 whole entry): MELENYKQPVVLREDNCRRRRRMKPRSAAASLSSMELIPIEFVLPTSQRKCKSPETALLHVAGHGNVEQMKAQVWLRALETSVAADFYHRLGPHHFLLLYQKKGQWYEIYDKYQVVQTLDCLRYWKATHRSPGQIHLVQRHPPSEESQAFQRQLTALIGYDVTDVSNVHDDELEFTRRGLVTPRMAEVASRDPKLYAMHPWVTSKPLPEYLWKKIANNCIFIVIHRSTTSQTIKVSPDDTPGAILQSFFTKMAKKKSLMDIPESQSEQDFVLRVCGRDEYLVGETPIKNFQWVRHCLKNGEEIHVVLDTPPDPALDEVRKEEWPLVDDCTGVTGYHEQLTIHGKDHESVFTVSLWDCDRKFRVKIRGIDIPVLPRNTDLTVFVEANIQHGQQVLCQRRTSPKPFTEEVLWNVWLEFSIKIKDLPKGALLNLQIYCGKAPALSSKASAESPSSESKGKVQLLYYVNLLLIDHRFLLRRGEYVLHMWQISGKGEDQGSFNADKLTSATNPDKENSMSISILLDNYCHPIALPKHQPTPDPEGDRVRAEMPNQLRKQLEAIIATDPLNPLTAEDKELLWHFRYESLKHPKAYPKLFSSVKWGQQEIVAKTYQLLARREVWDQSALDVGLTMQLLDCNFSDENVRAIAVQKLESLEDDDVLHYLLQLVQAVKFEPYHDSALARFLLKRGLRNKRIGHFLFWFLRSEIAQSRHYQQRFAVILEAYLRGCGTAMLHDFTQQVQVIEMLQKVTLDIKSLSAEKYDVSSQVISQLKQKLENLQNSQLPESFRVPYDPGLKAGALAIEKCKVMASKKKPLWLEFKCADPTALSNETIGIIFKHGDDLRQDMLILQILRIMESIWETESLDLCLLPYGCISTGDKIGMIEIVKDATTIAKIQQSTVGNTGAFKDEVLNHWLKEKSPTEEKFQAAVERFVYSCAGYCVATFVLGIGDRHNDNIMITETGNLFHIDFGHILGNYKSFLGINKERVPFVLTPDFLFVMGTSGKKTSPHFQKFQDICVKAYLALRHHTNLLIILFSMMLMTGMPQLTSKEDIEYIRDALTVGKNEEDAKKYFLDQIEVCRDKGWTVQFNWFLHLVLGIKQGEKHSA
Sequence of PI3K-C2β (O00750 whole entry): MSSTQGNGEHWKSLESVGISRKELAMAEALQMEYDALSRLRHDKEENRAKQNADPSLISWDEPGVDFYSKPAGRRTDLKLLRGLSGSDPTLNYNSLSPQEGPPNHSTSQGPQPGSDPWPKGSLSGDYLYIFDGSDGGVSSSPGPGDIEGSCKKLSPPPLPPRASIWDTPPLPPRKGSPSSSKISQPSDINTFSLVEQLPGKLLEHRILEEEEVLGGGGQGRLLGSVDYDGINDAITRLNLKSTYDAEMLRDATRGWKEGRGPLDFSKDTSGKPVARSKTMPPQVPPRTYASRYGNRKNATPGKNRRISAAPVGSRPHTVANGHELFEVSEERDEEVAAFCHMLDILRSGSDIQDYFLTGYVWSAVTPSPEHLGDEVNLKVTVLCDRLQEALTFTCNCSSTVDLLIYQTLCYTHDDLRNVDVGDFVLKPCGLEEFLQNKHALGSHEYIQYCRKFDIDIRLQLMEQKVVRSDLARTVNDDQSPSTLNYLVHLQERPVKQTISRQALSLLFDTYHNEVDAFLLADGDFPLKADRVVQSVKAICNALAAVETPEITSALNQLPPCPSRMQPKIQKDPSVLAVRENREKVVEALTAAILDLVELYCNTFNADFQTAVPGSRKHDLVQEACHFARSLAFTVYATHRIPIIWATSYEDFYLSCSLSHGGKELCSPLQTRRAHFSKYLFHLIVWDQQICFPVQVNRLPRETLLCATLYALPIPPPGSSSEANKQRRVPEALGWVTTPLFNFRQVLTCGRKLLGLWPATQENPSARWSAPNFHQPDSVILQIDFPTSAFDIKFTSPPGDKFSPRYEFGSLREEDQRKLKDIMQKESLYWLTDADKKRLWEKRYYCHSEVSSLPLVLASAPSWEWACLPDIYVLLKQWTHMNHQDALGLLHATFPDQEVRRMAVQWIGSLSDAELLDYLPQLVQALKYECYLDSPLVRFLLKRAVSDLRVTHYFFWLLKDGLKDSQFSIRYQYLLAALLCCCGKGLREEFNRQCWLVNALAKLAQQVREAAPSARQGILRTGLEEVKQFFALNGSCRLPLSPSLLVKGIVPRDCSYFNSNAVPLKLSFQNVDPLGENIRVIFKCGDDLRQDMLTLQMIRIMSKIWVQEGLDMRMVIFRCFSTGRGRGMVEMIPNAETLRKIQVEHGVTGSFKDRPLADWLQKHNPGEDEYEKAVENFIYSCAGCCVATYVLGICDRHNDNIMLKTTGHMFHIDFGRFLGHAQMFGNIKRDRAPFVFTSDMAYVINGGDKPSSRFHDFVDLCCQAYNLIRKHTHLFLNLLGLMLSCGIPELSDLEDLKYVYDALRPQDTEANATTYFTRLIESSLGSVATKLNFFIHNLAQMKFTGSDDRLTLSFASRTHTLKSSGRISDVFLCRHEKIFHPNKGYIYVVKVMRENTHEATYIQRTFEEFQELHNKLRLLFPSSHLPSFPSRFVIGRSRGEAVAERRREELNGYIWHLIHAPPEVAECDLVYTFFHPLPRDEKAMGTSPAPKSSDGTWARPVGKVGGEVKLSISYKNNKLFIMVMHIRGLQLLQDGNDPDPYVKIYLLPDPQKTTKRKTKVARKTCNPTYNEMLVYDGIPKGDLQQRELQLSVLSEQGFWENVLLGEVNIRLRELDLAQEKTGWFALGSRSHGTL
Sequence of CYP3A4 (P08684 whole entry): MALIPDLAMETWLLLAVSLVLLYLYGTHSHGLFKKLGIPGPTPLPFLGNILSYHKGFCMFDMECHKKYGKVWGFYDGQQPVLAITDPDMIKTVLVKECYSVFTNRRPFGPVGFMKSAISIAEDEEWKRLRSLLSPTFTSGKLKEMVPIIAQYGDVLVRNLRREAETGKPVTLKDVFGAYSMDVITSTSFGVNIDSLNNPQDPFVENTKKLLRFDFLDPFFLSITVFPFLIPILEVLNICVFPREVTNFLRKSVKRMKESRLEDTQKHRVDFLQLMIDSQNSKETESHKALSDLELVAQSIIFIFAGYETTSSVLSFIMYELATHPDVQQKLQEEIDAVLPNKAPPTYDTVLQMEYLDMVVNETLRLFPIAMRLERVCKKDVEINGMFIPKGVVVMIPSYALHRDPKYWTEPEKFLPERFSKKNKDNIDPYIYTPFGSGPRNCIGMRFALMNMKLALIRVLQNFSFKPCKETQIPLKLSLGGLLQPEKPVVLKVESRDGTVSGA
Sequence of P110α/P85α (P42336 whole entry): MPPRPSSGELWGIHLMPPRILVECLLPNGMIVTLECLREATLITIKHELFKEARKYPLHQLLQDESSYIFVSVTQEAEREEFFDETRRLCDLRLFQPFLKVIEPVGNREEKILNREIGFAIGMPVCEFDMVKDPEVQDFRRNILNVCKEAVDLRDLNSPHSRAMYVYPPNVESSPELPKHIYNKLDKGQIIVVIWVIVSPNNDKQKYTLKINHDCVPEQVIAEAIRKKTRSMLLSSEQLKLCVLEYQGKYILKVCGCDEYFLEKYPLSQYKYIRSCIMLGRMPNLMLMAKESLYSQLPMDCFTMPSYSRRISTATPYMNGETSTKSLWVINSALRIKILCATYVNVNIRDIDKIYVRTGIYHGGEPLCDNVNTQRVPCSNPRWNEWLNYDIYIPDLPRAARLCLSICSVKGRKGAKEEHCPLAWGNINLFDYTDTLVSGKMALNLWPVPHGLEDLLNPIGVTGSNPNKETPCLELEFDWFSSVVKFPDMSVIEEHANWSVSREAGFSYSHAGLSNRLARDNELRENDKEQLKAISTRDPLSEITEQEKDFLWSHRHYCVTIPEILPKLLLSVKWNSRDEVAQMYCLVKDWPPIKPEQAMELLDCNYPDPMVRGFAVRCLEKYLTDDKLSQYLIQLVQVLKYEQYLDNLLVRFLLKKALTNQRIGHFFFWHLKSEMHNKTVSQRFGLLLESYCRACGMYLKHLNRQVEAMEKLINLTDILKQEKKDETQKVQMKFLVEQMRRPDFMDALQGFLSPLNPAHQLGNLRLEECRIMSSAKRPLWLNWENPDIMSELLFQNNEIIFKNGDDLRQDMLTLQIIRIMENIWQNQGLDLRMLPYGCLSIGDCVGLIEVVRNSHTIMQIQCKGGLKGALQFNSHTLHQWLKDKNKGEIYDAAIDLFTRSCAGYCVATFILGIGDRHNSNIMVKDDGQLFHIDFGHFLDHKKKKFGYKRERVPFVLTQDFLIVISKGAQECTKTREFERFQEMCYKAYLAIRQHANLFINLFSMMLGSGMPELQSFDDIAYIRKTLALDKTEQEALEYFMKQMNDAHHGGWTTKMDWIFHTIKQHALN

SMILES | Ambit score (mTOR) | Ambit score (P110α/P85α) | Ambit score (P110δ/P85α) | Ambit score (P110γ) | CYP2D6 % inhibition (CYP2D6; 10 µM) | inhibition at 10 µM (CYP2D6) | blocked phosphorylation of S6K (T389) [1] | blocked phosphorylation of pAkt (S473) [1] | inhibition at 10 µM (CYP3A4) | Ambit score (PI3K-C2β) | anti-tumor activity (U87-MG mouse xenograft) | protein kinase off-targets (450 kinases)
CN1CCC(NC(=O)c2ccc(-c3ccc(-n4c(=O)ccc5cnc6ccc(-c7cnc8ccccc8c7)cc6c54)cc3C(F)(F)F)cc2)CC1 [Compound 10] | 0% | 0.1% | 2% | 0.05% | 51% | > 50% | 80–90% | 80–90% | > 60% | 0.65% |  | 
Cc1cc(-n2c(=O)ccc3cnc4ccc(-c5cnc6ccccc6c5)cc4c32)ccc1-c1ccc(C(=O)NC2CCN(C)CC2)cc1 [Compound 19] |  |  |  |  |  | 24% |  |  |  |  |  | 
CCC(=O)N1CCN(c2ccc(-n3c(=O)ccc4cnc5ccc(-c6cnc7ccccc7c6)cc5c43)cc2C(F)(F)F)CC1 [Torin1] |  |  |  |  |  |  |  |  |  |  | exhibited anti-tumor activity | no other significant protein kinase off-targets
